Literature values, collected in patent US20240307300A1, “AN IMPROVED PROCESS FOR THE PREPARATION OF AN AQUEOUS OPHTHALMIC SOLUTION OF DIFLUPREDNATE” (SUN PHARMA ADVANCED RESEARCH COMPANY LIMITED, priority 2021, published 2024).

Conditions: background statement

CCCC(=O)O[C@]1(C(=O)COC(C)=O)CC[C@H]2[C@@H]3C[C@H](F)C4=CC(=O)C=C[C@]4(C)[C@@]3(F)[C@@H](O)C[C@@]21C [Difluprednate]
solubility in aqueous vehicle: practically insoluble
